Entries after “also recorded” stand apart in the source; their conditions may differ.
Assay: Treatment of patients with Multiple Sclerosis (case histories and patient series)
Type: in vivo, human
Details: for Contribution of the component to the therapeutic effect in MS: added to the antidepressant regime
Method: Over 100 other patients have done well on a similar regime, although some have been given other antidepressants either of the traditional tricyclic class, such as amitriptyline or imipramine, or the newer specialist serotonin uptake inhibitors or monoamine oxidase inhibitors. Four particular instances are given in the appendix. […] The doses of LPA have also varied from about 100 mg to up to 5 g per day, but best results are obtained with doses in the region of 500-2000 mg/day. The doses of antidepressants (with the proviso that minimum effective and maximum safe levels are determined according to the drug), lie broadly in the range 10 mg to 200 mg per day.
A specific example of the use of the treatment is 70 mgs (half the therapeutic starting dose for depression) of lofepramine taken each morning with 500 mgs of L-phenylalanine, and 500 mgs of L-phenylalanine taken mid afternoon. For patients with the regular MS attacks of chronic progressive MS it is desirable to include an 8-10 week course of 1000 micrograms of hydroxocobalamin (intra muscular) per week at the start of treatment and then 1000 micrograms every ten days thereafter.

Molecule: N[C@@H](Cc1ccccc1)C(=O)O [L-phenylalanine (LPA), L-phenylalanine]
- Contribution of the component to the therapeutic effect in MS: contributes to the therapeutic effect

Molecule: CN(CCCN1c2ccccc2CCc2ccccc21)CC(=O)c1ccc(Cl)cc1 [lofepramine]
- Comparative therapeutic result among antidepressants in MS treatment (antidepressant combined with neurotransmitter precursor): best results; also recorded: Most have done best

Molecule: vitamin B12
- Contribution of the component to the therapeutic effect in MS: does have a beneficial effect; also recorded: the treatment works best
